Reference: patent EP0550016A1, “Novel quinolone carboxylic acid derivatives and processes for preparing same” (KOREA RESEARCH INSTITUTE OF CHEMICAL TECHNOLOGY, priority 1991, dated 1993)
Converted amounts (≈) assume the structure as drawn. Read-outs that look alike come from different tables or passages of the source.

Key:
Assay in all cases: In vitro anti-bacterial activity test (MIC, two-fold dilution method) against the standard strains
Assay type in all cases: cell-based
[1] = tested on: Streptococcus pyogenes 308 A; details: Table 1 strain 1: Streptococcus pyogenes 308 A
[2] = tested on: Streptococcus pyogenes 77 A; details: Table 1 strain 2: Streptococcus pyogenes 77 A; read-out: MIC
[3] = tested on: Streptococcus faecium MD 8b; details: Enterococcus faecium, MD8B; Table 1 strain 3: Streptococcus faecium MD 8b; read-out: MIC
[4] = tested on: Staphylococcus aureus SG 511; details: SG511; Table 1 strain 4: Staphylococcus aureus SG 511
[5] = tested on: Staphylococcus aureus 285; details: Table 1 strain 5: Staphylococcus aureus 285; read-out: MIC
[6] = tested on: Staphylococcus aureus 503; details: Table 1 strain 6: Staphylococcus aureus 503; read-out: MIC
Escherichia coli DC 0 [7] = details: DC0; Table 1 strain 7: Escherichia coli DC 0
Escherichia coli DC 0 [8] = details: DC0; Table 1 strain 8: Escherichia coli DC 0
Escherichia coli DC 2 = details: DC2
Escherichia coli OTEM = details: Table 1 strain 10: Escherichia coli OTEM
Escherichia coli 1507 E = details: Table 1 strain 11: Escherichia coli 1507 E
[9] = tested on: Pseudomonas aeruginosa 9027; details: Table 1 strain 12: Pseudomonas aeruginosa 9027
[10] = tested on: Pseudomonas aeruginosa 1592 E; details: Table 1 strain 13: Pseudomonas aeruginosa 1592 E
[11] = tested on: Pseudomonas aeruginosa 1771; details: Table 1 strain 14: Pseudomonas aeruginosa 1771
[12] = tested on: Pseudomonas aeruginosa 1771 M; details: Table 1 strain 15: Pseudomonas aeruginosa 1771 M
Salmonella typhimurium = details: Salmonella enterica; Table 1 strain 16: Salmonella typhimurium
[13] = tested on: Klebsiella aerogenes 1082 E; details: Table 1 strain 17: Klebsiella aerogenes 1082 E
[14] = tested on: Klebsiella aerogenes 1522 E; details: Table 1 strain 18: Klebsiella aerogenes 1522 E
[15] = tested on: Enterobacter cloacae P 99; details: P99; Table 1 strain 19: Enterobacter cloacae P 99
[16] = tested on: Enterobacter cloacae 1321 E; details: Table 1 strain 20: Enterobacter cloacae 1321 E
[17] = Table 1 strain 9: Escherichia coli DC 2, read-out: MIC

| Structure (SMILES) | MIC [1] | MIC [2] | MIC [3] | MIC [4] | MIC [5] | MIC [6] | MIC (Escherichia coli DC 0 [7]) | MIC (Escherichia coli DC 0 [8]) | MIC (Escherichia coli OTEM) | MIC (Escherichia coli 1507 E) | MIC [9] | MIC [10] | MIC [11] | MIC [12] | MIC (Salmonella typhimurium) | MIC [13] | MIC [14] | MIC [15] | MIC [16] | MIC (Escherichia coli DC 2; [17]) | also measured |
| --- | --- | --- | --- | --- | --- | --- | --- | --- | --- | --- | --- | --- | --- | --- | --- | --- | --- | --- | --- | --- | --- |
| CC(O)C(=O)O.NC1CC12CCN(c1c(F)cc3c(=O)c(C(=O)O)cn(C4CC4)c3c1Cl)C2 (stereo not shown) [Example 4, 7-(1-amino-5-azaspiro[2,4]heptane-5-yl)-8-chloro-1-cyclopropyl-6-fluoro-1,4-dihydro-4-oxoquinoline-3-carboxylic acid lactate] | 0.098 µg/mL | 0.049 µg/mL | 0.098 µg/mL | 0.025 µg/mL | 0.025 µg/mL | 0.013 µg/mL | 0.007 µg/mL | 0.098 µg/mL | 0.025 µg/mL | 0.025 µg/mL | 0.781 µg/mL | 0.781 µg/mL | 0.781 µg/mL | 0.195 µg/mL | 0.025 µg/mL | < 0.002 µg/mL | 0.025 µg/mL | 0.025 µg/mL | 0.007 µg/mL |  | MIC (Escherichia coli DC 2; Escherichia coli): 0.049 µg/mL |
| NC1CC12CCN(c1cc3c(cc1F)c(=O)c(C(=O)O)cn3C1CC1)C2 (stereo not shown) [Example 5, 7-(1-amino-5-azaspiro[2,4]heptane-5-yl)-1-cyclopropyl-6-fluoro-1,4-dihydro-4-oxoquinoline-3-carboxylic acid] | 0.391 µg/mL (≈ 1.09 µM) | 0.391 µg/mL (≈ 1.09 µM) | 0.195 µg/mL (≈ 0.546 µM) | 0.098 µg/mL (≈ 0.274 µM) | 0.098 µg/mL (≈ 0.274 µM) | 0.098 µg/mL (≈ 0.274 µM) | 0.025 µg/mL (≈ 0.07 µM) | 0.781 µg/mL (≈ 2.19 µM) | 0.049 µg/mL (≈ 0.137 µM) | 0.098 µg/mL (≈ 0.274 µM) | 1.56 µg/mL (≈ 4.37 µM) | 1.56 µg/mL (≈ 4.37 µM) | 1.56 µg/mL (≈ 4.37 µM) | 0.391 µg/mL (≈ 1.09 µM) | 0.049 µg/mL (≈ 0.137 µM) | 0.004 µg/mL (≈ 0.0112 µM) | 0.049 µg/mL (≈ 0.137 µM) | 0.049 µg/mL (≈ 0.137 µM) | 0.025 µg/mL (≈ 0.07 µM) | 0.098 µg/mL (≈ 0.274 µM) |  |
| NC1CC12CCN(c1nc3c(cc1F)c(=O)c(C(=O)O)cn3C1CC1)C2 (stereo not shown) [Example 6, 7-(1-amino-5-azaspiro[2,4]heptane-5-yl)-1-cyclopropyl-6-fluoro-4-oxo-1,4-dihydro-1,8-naphthyridine-3-carboxylic acid] | 0.391 µg/mL (≈ 1.09 µM) | 0.195 µg/mL (≈ 0.544 µM) | 0.195 µg/mL (≈ 0.544 µM) | 0.049 µg/mL (≈ 0.137 µM) | 0.049 µg/mL (≈ 0.137 µM) | 0.049 µg/mL (≈ 0.137 µM) | < 0.002 µg/mL | 0.391 µg/mL (≈ 1.09 µM) | 0.025 µg/mL (≈ 0.0698 µM) | 0.025 µg/mL (≈ 0.0698 µM) | 1.56 µg/mL (≈ 4.36 µM) | 1.56 µg/mL (≈ 4.36 µM) | 1.56 µg/mL (≈ 4.36 µM) | 0.195 µg/mL (≈ 0.544 µM) | 0.025 µg/mL (≈ 0.0698 µM) | 0.391 µg/mL (≈ 1.09 µM) | 0.025 µg/mL (≈ 0.0698 µM) | 0.007 µg/mL (≈ 0.0195 µM) | < 0.002 µg/mL | 0.098 µg/mL (≈ 0.273 µM) |  |
| CNC1CC12CCN(c1c(F)cc3c(=O)c(C(=O)O)cn4c3c1OC[C@@H]4C)C2 (stereo partly drawn) [Example 10, 9-fluoro-3-(S)-methyl-10-(1-methylamino-5-azaspiro[2,4]heptane-5-yl)-7-oxo-2,3-dihydro-7H-pyrido-[1,2,3-de]-1,4-benzoxazine-6-carboxylic acid] | 0.391 µg/mL (≈ 1.01 µM) | 0.195 µg/mL (≈ 0.503 µM) | 0.195 µg/mL (≈ 0.503 µM) | 0.049 µg/mL (≈ 0.126 µM) | 0.049 µg/mL (≈ 0.126 µM) | 0.049 µg/mL (≈ 0.126 µM) | 0.025 µg/mL (≈ 0.0645 µM) | 0.391 µg/mL (≈ 1.01 µM) | 0.049 µg/mL (≈ 0.126 µM) | 0.098 µg/mL (≈ 0.253 µM) | 1.56 µg/mL (≈ 4.03 µM) | 1.56 µg/mL (≈ 4.03 µM) | 1.56 µg/mL (≈ 4.03 µM) | 0.781 µg/mL (≈ 2.02 µM) | 0.049 µg/mL (≈ 0.126 µM) | 0.007 µg/mL (≈ 0.0181 µM) | 0.098 µg/mL (≈ 0.253 µM) | 0.049 µg/mL (≈ 0.126 µM) | 0.025 µg/mL (≈ 0.0645 µM) | 0.049 µg/mL (≈ 0.126 µM) |  |
| CNC1CC12CCN(c1cc3c(cc1F)c(=O)c(C(=O)O)cn3C1CC1)C2 (stereo not shown) [Example 11, 7-(1-methylamino-5-azaspiro[2,4]heptane-5-yl)-1-cyclopropyl-6-fluoro-1,4-dihydro-4-oxoquinoline-3-carboxylic acid] | 0.781 µg/mL (≈ 2.1 µM) | 0.781 µg/mL (≈ 2.1 µM) | 0.781 µg/mL (≈ 2.1 µM) | 0.098 µg/mL (≈ 0.264 µM) | 0.098 µg/mL (≈ 0.264 µM) | 0.098 µg/mL (≈ 0.264 µM) | 0.049 µg/mL (≈ 0.132 µM) | 1.56 µg/mL (≈ 4.21 µM) | 0.098 µg/mL (≈ 0.264 µM) | 0.098 µg/mL (≈ 0.264 µM) | 3.12 µg/mL (≈ 8.41 µM) | 3.12 µg/mL (≈ 8.41 µM) | 3.12 µg/mL (≈ 8.41 µM) | 0.781 µg/mL (≈ 2.1 µM) | 0.098 µg/mL (≈ 0.264 µM) | 0.004 µg/mL (≈ 0.0108 µM) | 0.098 µg/mL (≈ 0.264 µM) | 0.098 µg/mL (≈ 0.264 µM) | 0.049 µg/mL (≈ 0.132 µM) | 0.195 µg/mL (≈ 0.525 µM) |  |
